These results are taken from patent US20230242530A1, “8-(AZETIDIN-1-YL)-[1,2,4]TRIAZOLO[1,5-A]PYRIDINYL COMPOUNDS, COMPOSITIONS AND METHODS OF USE THEREOF” (Genentech, Inc., priority 2016, published 2023).

Test [1] addresses T1, isolated recombinant JAK1 kinase domain (Homo sapiens, UniProt P23458).
T1 construct: isolated recombinant JAK1 and JAK2 kinase domain
In words: JAK enzyme assay, JAK1 kinase domain (Caliper LabChip). The settings on record: 1.5 nM JAK1, ATP 25 μM, Morrison tight binding model. The test is classed as biochemical. The method, boiled down: (§1)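 Recombinant kinase domains phosphorylated a 5-carboxyfluorescein-labelled JAK3-derived peptide for 30 min at 22 °C, and the reaction was stopped with EDTA (50 mM final). Product fraction was measured by Caliper LabChip mobility shift. Ki came from Morrison tight-binding fits corrected for ATP competition (Ki=Ki,app/(1+[ATP]/Km,app)).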

In test [2] the target is T2, isolated recombinant JAK2 kinase domain (Homo sapiens, UniProt O60674).
T2 construct: isolated recombinant JAK1 and JAK2 kinase domain
The test is described as follows: JAK enzyme assay, JAK2 kinase domain (Caliper LabChip). The test is classed as biochemical. The settings on record: 0.2 nM JAK2, ATP 25 μM, Morrison tight binding model. In outline: as §1

The test system of test [3] is JAK1-dependent STAT6 phosphorylation downstream of IL-13 stimulation in BEAS-2B cells. In words: JAK1 pathway assay in cell lines: IL-13 p-STAT6 BEAS-2B. The test is classed as cell-based. Particulars: BEAS-2B human bronchial epithelial cells, 1 hr compound, IL-13 15 min, MSD readout. In outline: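 BEAS-2B cells plated a day ahead in complete growth medium; compounds added 1 hr at 37 °C (0.2% DMSO final), then IL-13 at lot-specific EC90 for 15 min at 37 °C. Phospho-STAT6 in lysates measured by MSD; EC50 is 50% inhibition relative to DMSO control.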

The Ki is the dissociation constant of the complex between target and ligand, obtained from inhibition or displacement. In general, EC50 refers to the concentration that produces a half-maximal response. High values mean weaker potency, low ones greater potency.

T1 sequence (P23458 875-1153 limits assumed): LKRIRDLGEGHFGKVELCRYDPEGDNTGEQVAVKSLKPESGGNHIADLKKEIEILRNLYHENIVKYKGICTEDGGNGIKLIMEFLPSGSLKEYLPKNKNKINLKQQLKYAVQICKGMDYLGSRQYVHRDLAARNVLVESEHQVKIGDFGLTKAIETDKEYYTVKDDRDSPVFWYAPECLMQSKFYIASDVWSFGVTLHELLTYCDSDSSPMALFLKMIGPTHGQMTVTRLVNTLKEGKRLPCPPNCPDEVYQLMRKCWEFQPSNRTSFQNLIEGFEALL
T2 sequence (O60674 849-1124 limits assumed): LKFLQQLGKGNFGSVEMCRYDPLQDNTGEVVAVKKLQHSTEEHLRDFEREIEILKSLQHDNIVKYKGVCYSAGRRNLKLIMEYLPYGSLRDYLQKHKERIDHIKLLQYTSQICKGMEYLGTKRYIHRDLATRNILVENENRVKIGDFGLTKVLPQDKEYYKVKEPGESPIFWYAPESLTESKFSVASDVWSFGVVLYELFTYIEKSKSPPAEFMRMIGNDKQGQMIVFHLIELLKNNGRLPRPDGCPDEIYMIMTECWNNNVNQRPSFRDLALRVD

With `CN1CCN(C(=O)c2ccc(Nc3nc4c(N5CC(CC#N)(n6cc(C7CCOCC7)cn6)C5)cccn4n3)cc2)CC1` [Example 113, 2-[1-[2-[4-(4-methylpiperazine-1-carbonyl)anilino]-[1,2,4]triazolo[1,5-a]pyridin-8-yl]-3-(4-tetrahydropyran-4-ylpyrazol-1-yl)azetidin-3-yl]acetonitrile], the Ki in test [1] came to 0.4 nM; in test [2], 0.6 nM. In test [3], this molecule yielded an EC50 of 43 nM.

Consider `CN1CCN(C(=O)Cn2cc(Nc3nc4c(N5CC(CC#N)(Cc6ccccc6)C5)cccn4n3)cn2)CC1` [Example 26, 2-[3-benzyl-1-[2-[[1-[2-(4-methylpiperazin-1-yl)-2-oxo-ethyl]pyrazol-4-yl]amino]-[1,2,4]triazolo[1,5-a]pyridin-8-yl]azetidin-3-yl]acetonitrile], for which the Ki is 0.4 nM in test [1] and 2.1 nM in test [2]. The molecule also showed an EC50 in test [3] of 42 nM.

Consider `CN1CCN(C(=O)Cn2cc(Nc3nc4c(N5CC(CC#N)(n6cc(CCF)cn6)C5)cccn4n3)cn2)CC1` [Example 40, 2-[3-[4-(2-fluoroethyl)pyrazol-1-yl]-1-[2-[[1-[2-(4-methylpiperazin-1-yl)-2-oxo-ethyl]pyrazol-4-yl]amino]-[1,2,4]triazolo[1,5-a]pyridin-8-yl]azetidin-3-yl]acetonitrile], for which the inhibition constant Ki amounted to 0.3 nM in test [1] and 0.2 nM in test [2]. Besides, in test [3], the EC50 was found to be 18 nM.

Turning to `Cn1cc(Nc2nc3c(N4CC(CC#N)(n5cc(C6CC6)cn5)C4)cccn3n2)cn1` [Example 142, 2-[3-(4-cyclopropylpyrazol-1-yl)-1-[2-[(l-methylpyrazol-4-yl)amino]-[1,2,4]triazolo[1,5-a]pyridin-8-yl]azetidin-3-yl]acetonitrile], the figures for the Ki in test [1] and in test [2] were 0.4 nM and 0.5 nM, respectively. In test [3], this molecule had an EC50 of 14 nM.

On to `CCc1cnn(C2(CC#N)CN(c3cccn4nc(Nc5cnn(CCO)c5)nc34)C2)c1` [Example 133, 2-[3-(4-ethylpyrazol-1-yl)-1-[2-[[1-(2-hydroxyethyl)pyrazol-4-yl]amino]-[1,2,4]triazolo[1,5-a]pyridin-8-yl]azetidin-3-yl]acetonitrile], for which the inhibition constant Ki in test [1] and in test [2] was 0.3 nM each time. Also, the EC50 in test [3] is 12 nM.

With `CN1CCN(C(=O)Cn2cc(Nc3nc4c(N5CC(CC#N)(n6cc(CO)cn6)C5)cccn4n3)cn2)CC1` [Example 20, 2-[3-[4-(hydroxymethyl)pyrazol-1-yl]-1-[2-[[1-[2-(4-methylpiperazin-1-yl)-2-oxo-ethyl]pyrazol-4-yl]amino]-[1,2,4]triazolo[1,5-a]pyridin-8-yl]azetidin-3-yl]acetonitrile], the Ki in test [1] turned out to be 1.2 nM; in test [2], 9.6 nM. Besides, the EC50 in test [3] was > 1000 nM.

Take `CCc1cnn(C2(CC#N)CN(c3cccn4nc(Nc5cnn(CC(=O)N6CCC(N(C)C7COC7)CC6)c5)nc34)C2)c1` [Example 34, 2-[3-(4-ethylpyrazol-1-yl)-1-[2-[[1-[2-[4-[methyl(oxetan-3-yl)amino]-1-piperidyl]-2-oxo-ethyl]pyrazol-4-yl]amino]-[1,2,4]triazolo[1,5-a]pyridin-8-yl]azetidin-3-yl]acetonitrile]: the results for the Ki in test [1] and in test [2] were 0.4 nM and 0.3 nM, respectively. The molecule also displayed an EC50 in test [3] of 15 nM.

As to `CCc1cnn(C2(CC#N)CN(c3cccn4nc(Nc5cnn(CC(=O)N6CCN(CC)CC6)c5)nc34)C2)c1` [Example 41], the Ki is 0.5 nM in test [1] and 1.9 nM in test [2]. Moreover, the EC50 in test [3] came to 65 nM.

On to `CN1CCN(C(=O)Cn2cc(Nc3nc4c(N5CC(CC#N)(Cc6cccc(Cl)c6)C5)cccn4n3)cn2)CC1` [Example 102, 2-[3-[(3-chlorophenyl)methyl]-1-[2-[[1-[2-(4-methylpiperazin-1-yl)-2-oxo-ethyl]pyrazol-4-yl]amino]-[1,2,4]triazolo[1,5-a]pyridin-8-yl]azetidin-3-yl]acetonitrile], for which the values for the inhibition constant (Ki) in test [1] and in test [2] were 1.2 nM and 5.1 nM, respectively. For the same molecule, the EC50 in test [3] worked out at 290 nM.
